Where a name gives a salt, the structure may show the parent alone. Non-standard residues stand in square brackets, D forms with d. Residues, ends and D or L forms follow the SMILES beside them. No end group written: not given here. pGlu = O=C1CC[C@@H](C(=O)O)N1
Tests used:
[1] = tested on: T lymphocytes isolated from spleens of male CBA/J or NZB mice; assay: T lymphocyte proliferation, 3H-thymidine uptake; assay type: cell-based
Procedure: The activity of the compounds of Examples is determined according to the following procedure:
T lymphocytes are isolated from spleens of male CBA/J or NZB mice. Cell homogenates are prepared in Hank's balanced salt solution (HBSS). After removal of larger particles and repeated washing of the cells in HBSS they are suspended in minimum essential medium (MEM) and passed through a glass wool column to remove macrophages. The cells are then incubated on a nylon wool column at 37° C., 95% air, 5% CO2, for 45 minutes. The non-adherant T lymphocytes are then eluted from the column, counted, and adjusted to 20×10^6 cells/ml. 50 μl. of cells are cultured (37° C., 95% air, 5% Co2) with compound, for 48 hours before addition of 0.5 μCi. of 3H-thymidine for the last 16 hours of culture. The total volume of the culture system is 200 μl. The cells are then harvested on a multiple automatic sample harvester (Mash II), the glass fiber filter disks placed in 10 ml. of xylene base scintillation fluid, and counted for 1 minute in a liquid scintillation counter. Results are reported as CPM±SE. Levamisole is used as the standard. Comparisons are made between counts obtained with control cultures and cultures containing compound and a determination made as to whether the compounds are active at the dosage tested.

[2] = several biological models; Low et al.; cited from earlier work
[3] = 1.5 ng/culture, control (0 ng) 49,519 ± 4048
[4] = 6.0 ng/culture, control (0 ng) 49,519 ± 4048
[5] = 25.0 ng/culture, control (0 ng) 49,519 ± 4048
[6] = 100.0 ng/culture, control (0 ng) 49,519 ± 4048

## NCCCC[C@H](NC(=O)[C@H](CCCCN)NC(=O)[C@@H]1CCC(=O)N1)C(=O)N[C@@H](CCC(=O)O)C(N)=O [p-Glu--Lys--Lys--Glu--NH2, L-(5-oxoprolyl)-L-lysyl-L-lysyl-L-α-glutamine, diacetate salt] ([pGlu]KKE-NH2)
[1]; [3]
  3H-Thymidine Uptake CPM + S.E.: 73,407 ± 3333 CPM
[1]; [4]
  3H-Thymidine Uptake CPM + S.E.: 78,727 ± 7102 CPM
[1]; [5]
  3H-Thymidine Uptake CPM + S.E.: 73,932 ± 6944 CPM
[1]; [6]
  3H-Thymidine Uptake CPM + S.E.: 67,489 ± 5190 CPM

## CC(C)[C@H](NC(=O)[C@H](CCC(=O)O)NC(=O)[C@H](CCCCN)NC(=O)[C@@H](N)CCCCN)C(=O)O [H-- Lys--Lys--Glu Val--OH, L-Lysyl-L-lysyl-L-glutamyl-L-valine, diacetate salt] (H-KKEV-OH)
[1]; 2.5 ng/culture, control (0 ng) 2,789 ± 148
  3H-Thymidine Uptake CPM + S.E.: 3,931 ± 140 CPM
[1]; 10 ng/culture, control (0 ng) 2,789 ± 148
  3H-Thymidine Uptake CPM + S.E.: 3,745 ± 172 CPM
[1]; 25 ng/culture, control (0 ng) 2,789 ± 148
  3H-Thymidine Uptake CPM + S.E.: 4,397 ± 346 CPM
[1]; 100 ng/culture, control (0 ng) 2,789 ± 148
  3H-Thymidine Uptake CPM + S.E.: 4,235 ± 284 CPM

## CC(=O)O.CC(=O)O.CC(=O)O.CC(C)[C@H](NC(=O)[C@H](CCC(=O)O)NC(=O)[C@H](CCCCN)NC(=O)[C@@H](N)CCCCN)C(N)=O [H--Lys--Lys--Glu--Val--NH2, L-lysyl-L-lysyl-L-glutamyl-L-valineamide, triacetate salt] (H-KKEV-NH2)
[1]; [3]
  3H-Thymidine Uptake CPM + S.E.: 72,713 ± 3633 CPM
[1]; [4]
  3H-Thymidine Uptake CPM + S.E.: 77,979 ± 3760 CPM
[1]; [5]
  3H-Thymidine Uptake CPM + S.E.: 62,712 ± 6004 CPM
[1]; [6]
  3H-Thymidine Uptake CPM + S.E.: 51,021 ± 5527 CPM

## thymosin α1 (SDAAVDTSSEITTKDLKEKKEVVEEAEN; ends and bridges not checked; UniProt P06454 2-29, looked up)
[2]
  activity relative to the parent thymosin Fraction 5: 10-1,000 times

## CC(C)[C@H](NC(=O)[C@H](CCC(=O)O)NC(=O)[C@H](CCCCN)NC(=O)[C@H](CCCCN)NC(=O)[C@@H]1CCC(=O)N1)C(N)=O [p-Glu--Lys--Lys--Glu--Val--NH2, L-(5-oxoprolyl)-L-lysyl-L-lysyl-L-α-glutamyl-L-valinamide, diacetate salt] ([pGlu]KKEV-NH2)
[1]; 1.5 ng/culture, control (0 ng) 9,876 ± 951
  3H-Thymidine Uptake CPM + S.E.: 23,736 ± 3417 CPM
[1]; 6.0 ng/culture, control (0 ng) 9,876 ± 951
  3H-Thymidine Uptake CPM + S.E.: 31,236 ± 2004 CPM
[1]; 25.0 ng/culture, control (0 ng) 9,876 ± 951
  3H-Thymidine Uptake CPM + S.E.: 26,026 ± 3537 CPM
[1]; 100.0 ng/culture, control (0 ng) 9,876 ± 951
  3H-Thymidine Uptake CPM + S.E.: 27,830 ± 1749 CPM

## c1ccc([C@H]2CN3CCSC3=N2)cc1 [Levamisole, reference compound]
[1]; 5 ng/culture, 48 h culture, 3H-thymidine last 16 h, control 49,519 ± 4048
  3H-Thymidine Uptake CPM + S.E.: 70,353 ± 1561 CPM

From patent US4361673A, “Polypeptide compositions” (American Home Products Corporation, priority 1981, dated 1982)
